# Assay results as given in article PMC10447463, “Data-mining unveils structure–property–activity correlation of viral infectivity enhancing self-assembling peptides” (Nature Communications, 2023).
# Assays:
# [1] = system: HIV-1 infection of TZM-bl cells; test: HIV-1 infectivity enhancement assay, β-galactosidase luminescence; assay type: cell-based; details: for Rel-EFC / Log10 Infection Rel EFC: 1.3 µM peptide; for Rel-EFC: infection relative to EF-C (QCKIKQIINMWQ = 1); for Log10 Infection Rel EFC: log10 of infection relative to EF-C; for Log Infectivity: Log10 infection relative to EF-C, TZM-bl cells, asymmetric std dev errors; for Log10 Infection Rel EF-C: HIV-1 infection of TZM-bl cells; for Log10 of Rel to EFC (Feb2021): Log10 of infection relative to EF-C, all peptides of FigS16
# [2] = β-sheet content by ATR-FT-IR; assay type: physicochemical; details: Fig. S7 panel A; β-sheet content by ATR-FT-IR
# In short: (§1)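 Spectra: 64 scans, 2 cm^-1, lyophilized PNF (1 mg/mL source). CR = 100 − 100 × filtrate/original fluorescamine signal; triplicate, ± SD.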
# [3] = Zeta-potential measurement; assay type: physicochemical; details: for Zeta-Pot.: zeta potential of peptide assemblies
# In short: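 PBS pH 7.4, 1 mg/mL peptide (DMSO stock), 1 d RT aggregation; diluted in 1 mM KCl pre-read; mobility → zeta (Smoluchowski); n = 3, 2 expts averaged.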
# [4] = Turbidity, derived count rate of scattered light; assay type: physicochemical; details: for Count Rate / kcps: derived count rate of scattered light at 633 nm, 173°, from zeta-potential measurement, 0.1 mg/mL in 1 mM KCl after 1 d at 1 mg/mL in PBS, turbidity / microscopic aggregation, mean of triplicate
# In short: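 One-day room-temperature aggregation at 1 mg/mL in PBS (pH 7.4) preceded measurement; samples then went into 1 mM KCl. Triplicates per sample, two independent experiments averaged.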
# [5] = Conversion rate (CR) assay with fluorescamine; assay type: physicochemical; set-up: key to CR: % = 100−100×filtrate/original fluorescence intensity; details: conversion rate, fluorescamine assay; for CR / %: Fig. S7 panel B
# In short: as §1
# [6] = Fig. S7 panel A (plotted against β-sheet content)
# [7] = Fig. S7 panel B (plotted against CR), rounded to two decimals
# [8] = Log10 of infection rate relative to EF-C, Figure 3A source data
# [9] = infection rate relative to EF-C, log10, data of Figure 2D
# [10] = infection rate relative to EF-C, log10, source data of Figure 2C
# [11] = zeta-potential of peptide, source data of Figure 2C
# [12] = zeta-potential of the peptide assemblies, mean, Figure 3A source data
# [13] = Log10 of derived count rate of scattered light (turbidity)
# [14] = log10 of derived count rate of scattered light (turbidity)
# [15] = turbidity, Log10 of derived count rate of scattered light, Figure 3A source data
Sequence,Rel-EFC [1],Log10 Infection Rel EFC [1],"Log Infectivity [1, 6]","Log Infectivity [1, 7]","Log10 Infection Rel EF-C [1, 8]","Log10 Infection Rel EF-C [1, 9]","Log10 Infection Rel EF-C [1, 10]",Log10 of Rel to EFC (Feb2021) [1],b -sheet / % [2] [%],Zeta-Pot. [3],"Zeta-Potential / mV [3, 11] [mV]","Zeta-Potential / mV [3, 12] [mV]","Log10 Count Rate [4, 13]",Count Rate / kcps [4] [kcps],"Log10 Count Rate [4, 14]","Log10 Count Rate [4, 15]",CR / % [5] [%],CR [5],Log10 Count Rate ([4]; logarithm of count rate in kcps)
RGDCKFKFQF,"0,15","-0,82",-0.8186,-0.82,-0.82,-0.8186,-0.8186,-0.82,46.68,13.87,16.37,13.87,3.1264,1338,3.1264,3.1264,85.5,85.47,–
RGDKIKIQIC,"0,83","-0,08",-0.07993,-0.08,-0.08,-0.07993,-0.07993,-0.08,40.73,16.5,17.27,16.5,3.876,7509,3.876,3.876,80,80,–
RGDKIKIQINM,"0,41","-0,38",-0.3838,-0.38,-0.38,-0.3838,-0.3838,-0.38,45.52,16.43,16.22,16.43,1.7574,57,1.7574,1.7574,60.9,60.92,–
RGDKIKIQINMWQ,"0,76","-0,12",-0.1175,-0.12,-0.12,-0.1175,-0.1175,-0.12,49.07,6.59,11.21,6.59,3.1914,1554,3.1914,3.1914,66,66,–
RGDSGGGGGGKIKIQIC,"0,87","-0,06",-0.0628,-0.06,-0.06,-0.0628,-0.0628,-0.06,40.62,16.7,16.7,16.7,4.018,10416,4.018,4.018,54.7,54.68,4.018
RGDSKIKIQIC,"0,6","-0,22",-0.2249,-0.22,-0.22,-0.2249,-0.2249,-0.22,38.56,15.1,15.65,15.1,3.431,2699,3.431,3.431,43.4,43.38,–
